Where two headings read alike, the source gives them in different places. Where no end group is shown, it is not given here.
How the values were obtained:
Format in all cases: cell-based
[1] = system: human red blood cells (hRBC); assay: Hemolytic assay; conditions: for lysis percentage: hRBC 5% v/v, one hour at 37° C.
Description: Melittin, Pem-2252 L and Pem-2254 L were tested for hemolysis against human red blood cells (hRBC). […] The hRBCs with EDTA were rinsed 3 times with PBS (800×g, 10 min) and re-suspended in PBS. The hRBCs were diluted into 10% with phosphate-buffered saline and placed 50 μl into each eppendorf. The peptides dissolved in PBS were then added to 50 μl of 10% solution of hRBCs and incubated for an hour at 37° C. (final hRBC concentration, 5% v/v). The samples were centrifuged at 800 g for 10 min […]. Various concentrations of peptides were incubated with pretreated hRBC and the percentage of hemolysis determined (Percentage lysis, Zero hemolysis (blank) and 100% hemolysis were determined in PBS buffer and 1% Triton X-100). […] At 5 μg/ml, 50 μg/ml and 400 μg/ml, its lysis percentages were 0.45%, 1.52% and 16.35%, respectively.

[2] = system: outer membrane of E. coli; assay: Outer membrane permeabilization, NPN uptake assay; conditions: intact E. coli cells, NPN fluorescence
Description: The outer membrane permeabilization activity of the peptide variants was determined by the 1-N-phenylnaphthylamine (NPN) uptake assay, using intact cells of E. coli. […] Since NPN is hydrophobic, it provides a direct measurement of the degree of outer membrane permeability. E. coli take up little or no NPN in a general condition. […] Fluorescence would vary with the concentration of peptide. The steps of the embodiment were described as follow. One ml of overnight culture was used to inoculate 50 ml of media and incubated at 37° C. with shaking. The culture was permitted to grow to an OD600 of 0.4 to 0.6, cells were spun down at 3500 rpm for 10 minutes, washed, and re-suspended in buffer to an OD600 of 0.5. The OD600 was recorded, 1 ml of cells (OD600=0.5) was added to the cuvette and measured after 2-5 seconds. 20 μl NPN 0.5 mM, shaken to mix, was added and measured after 2-5 seconds. 10 ul antibiotic 100× desired final concentration was added, shaken to mix, and measured until the maximal value was reached within 1 to 5 minutes. The concentration of peptide leading to 50% of the maximum increase in NPN uptake was recorded as the P50. As results shown in table 4, all of the peptides were capable of interacting with membrane.

[3] = system: Staphylococcus aureus (ATCC 29213)
Description: (§1) The in vitro antimicrobial activities of antimicrobial agents were tested using minimum inhibition concentration (MIC) tests. The MIC value is the lowest concentration of peptide at which the visible growth of test organisms was inhibited and reduced. The test strains herein were E. coli (ATCC 25922), Pseudomonas aeruginosa (ATCC 27853) and Staphylococcus aureus (ATCC 29213).
(§2) Overnight cultures of the test organisms were diluted to produce an inoculum containing approximately 10^5 colonies in Meuller-Hinton broth (MHB). Peptide solution with different concentrations was added to diluted culture of the test organisms. After 18 hours of incubation at 37° C., the results were assayed for turbidity as an indicator of cell growth. MIC values for the peptides were measured three times at different time points. […] On the other hand, modifications for primary or secondary structures without influencing their activity, such as acetylation, amidation, formylation, hydroxylation, lipid modification, methylation or phosphorylation, were performed herein.

[4] = system: E. coli (ATCC 25922)
Description: as §1, §2

[5] = system: Pseudomonas aeruginosa (ATCC 27853)
Description: as §1, §2

[6] = system: E. coli
Text: (§3) The MIC values against various strains are shown in table 3, Pem-2251 L and Pem-2254 L have great microbial activity as well.

[7] = system: Bacillus pumilus
Text: as §3

[8] = system: Bacillus cereus
Text: as §3

[9] = system: Bacillus substilis
Text: as §3

[10] = system: Staphylococcus epidermidis
Text: as §3

[11] = system: Staphylococcus aureus
Text: as §3

[12] = system: Pseudomonas aeruginosa
Text: as §3

[13] = S. aureus ATCC 29213, MHB, 18 hours at 37° C., mean of three
[14] = E. coli ATCC 25922, MHB, 18 hours at 37° C., mean of three
[15] = P. aeruginosa ATCC 27853, MHB, 18 hours at 37° C., mean of three

Row | Molecule | MIC ([3]; ATCC 29213, 18 h) [µg/mL] | MIC ([4]; ATCC 25922, 18 h) [µg/mL] | MIC ([5]; ATCC 27853, 18 h) [µg/mL] | MIC [3, 13] [µg/mL] | MIC [4, 14] [µg/mL] | MIC [5, 15] [µg/mL] | also measured
1 | CC[C@H](C)[C@H](NC(=O)CN)C(=O)NCC(=O)N[C@@H](C)C(=O)N[C@H](C(=O)N[C@@H](CC(C)C)C(=O)N[C@@H](CCCCN)C(=O)N[C@H](C(=O)N[C@@H](CC(C)C)C(=O)N[C@H](C(=O)N[C@H](C(=O)NCC(=O)N[C@@H](CC(C)C)C(=O)N1CCC[C@H]1C(=O)N[C@@H](C)C(=O)N[C@@H](CC(C)C)C(=O)N[C@H](C(=O)N[C@@H](CO)C(=O)N[C@@H](Cc1c[nH]c2ccccc12)C(=O)N[C@H](C(=O)N[C@@H](CCCCN)C(=O)N[C@@H](CCCNC(=N)N)C(=O)N[C@@H](CCCCN)C(=O)N[C@@H](CCCNC(=N)N)C(=O)N[C@@H](CCC(N)=O)C(=O)N[C@@H](CCC(N)=O)C(N)=O)[C@@H](C)CC)[C@@H](C)CC)[C@@H](C)O)[C@@H](C)O)C(C)C)C(C)C [Melittin, reference compound] |  |  |  |  |  |  | lysis percentage ([1]; 5 μg/ml peptide): 50%; lysis percentage ([1]; 50 μg/ml peptide): 100%; lysis percentage ([1]; 400 μg/ml peptide): 100%
2 | KFKRWLA-NH2 [Pem-1001 L, Lys Phe Lys Arg Trp Leu Ala] | 50 | 50 | 50 |  |  |  | P50 (concentration of peptide leading to 50% of the maximum increase in NPN uptake) [2]: 6.25 µg/mL
3 | KKFRRFVRFIAKK-NH2 [Pem-2253 L, Lys Lys Phe Arg Arg Phe Val Arg Phe Ile Ala Lys Lys] | 12.5 | 12.5 | 12.5 |  |  |  | 
4 | KKWRAWLKWLAKK-NH2 [Pem-2251 L, Lys Lys Trp Arg Ala Trp Leu Lys Trp Leu Ala Lys Lys] | 12.5 | 1.565 | 6.25 |  |  |  | P50 (concentration of peptide leading to 50% of the maximum increase in NPN uptake) [2]: 6.25 µg/mL; MIC [6]: 3.125 µg/mL; MIC [7]: 6.25 µg/mL; MIC [8]: 6.25 µg/mL; MIC [9]: 3.125 µg/mL; MIC [10]: 3.125 µg/mL; MIC [11]: 3.125 µg/mL; MIC [12]: 6.25 µg/mL
5 | KKWRKWLKWLAKK-NH2 [Pem-2254 L, Lys Lys Trp Arg Lys Trp Leu Lys Trp Leu Ala Lys Lys] |  | 1.565 | 1.565 |  |  |  | lysis percentage ([1]; 5 μg/ml peptide): 0.45%; lysis percentage ([1]; 50 μg/ml peptide): 1.52%; lysis percentage ([1]; 400 μg/ml peptide): 16.35%; MIC [6]: 1.565 µg/mL; MIC [7]: 3.125 µg/mL; MIC [8]: 6.25 µg/mL; MIC [9]: 3.125 µg/mL; MIC [10]: 1.565 µg/mL; MIC [11]: 1.565 µg/mL; MIC [12]: 3.125 µg/mL
6 | KKWRKWLRAIAKK-NH2 [Pem-2252 L, Lys Lys Trp Arg Lys Trp Leu Arg Ala Ile Ala Lys Lys] | 25 | 25 | 25 |  |  |  | lysis percentage ([1]; 5 μg/ml peptide): 3.12%; lysis percentage ([1]; 5 μg/ml peptide, listed as Pem-2252): 0.45%; lysis percentage ([1]; 50 μg/ml peptide): 9.82%; lysis percentage ([1]; 50 μg/ml peptide, listed as Pem-2252): 1.52%; lysis percentage ([1]; 400 μg/ml peptide): 37.66%; lysis percentage ([1]; 400 μg/ml peptide, listed as Pem-2252): 16.35%; hemolytic activity against hRBC, in words ([1]; compared with other antimicrobial peptides): less hemolytic against hRBC than other antimicrobial peptides
7 | KWKIWLK-NH2 [Pem-1003 L, Lys Trp Lys Ile Trp Leu Lys] | 12.5 | 25 | 12.5 |  |  |  | 
8 | Lys Lys Phe Arg Arg Phe Val Arg Phe Ile Ala Lys Lys (KKFRRFVRFIAKK; not fully specified (bridges); printed as Lys Lys Phe Arg Arg Phe Val Arg Phe Ile Ala Lys Lys; also: cyclic topology, ring type not given here) [Pem-2253 C] |  |  |  | 50 | 50 | 50 | 
9 | Lys Lys Trp Arg Ala Trp Leu Lys Trp Leu Ala Lys Lys (KKWRAWLKWLAKK; not fully specified (bridges); printed as Lys Lys Trp Arg Ala Trp Leu Lys Trp Leu Ala Lys Lys; also: cyclic topology, ring type not given here) [Pem-2251 C] |  |  |  | 50 | 25 | 25 | 
10 | Lys Lys Trp Arg Lys Trp Leu Arg Ala Ile Ala Lys Lys (KKWRKWLRAIAKK; not fully specified (bridges); printed as Lys Lys Trp Arg Lys Trp Leu Arg Ala Ile Ala Lys Lys; also: cyclic topology, ring type not given here) [Pem-2252 C] |  |  |  | >50 | >50 | >50 | 
11 | Lys Lys Trp Arg Lys Trp Leu Lys Trp Leu Ala Lys Lys (KKWRKWLKWLAKK; not fully specified (bridges); printed as Lys Lys Trp Arg Lys Trp Leu Lys Trp Leu Ala Lys Lys; also: cyclic topology, ring type not given here) [Pem-2254 C] |  |  |  | 50 | 25 | 25 | 
12 | Lys Phe Arg Ala Trp Val Arg (KFRAWVR; not fully specified (bridges); printed as Lys Phe Arg Ala Trp Val Arg; also: cyclic topology, ring type not given here) [Pem-1002 C] |  |  |  | >50 | >50 | >50 | 
13 | Lys Phe Lys Arg Trp Leu Ala (KFKRWLA; not fully specified (bridges); printed as Lys Phe Lys Arg Trp Leu Ala; also: cyclic topology, ring type not given here) [Pem-1001 C] |  |  |  | >50 | >50 | >50 | 
